Measured values as given in publication PMC1713233, “Implantation Serine Proteinases heterodimerize and are critical in hatching and implantation” (BMC Developmental Biology, 2006).
Where a name gives a salt, the structure may show the parent alone. Read-outs that look alike come from different tables or passages of the source. Blank lines part the entries; values can stand above or below the molecule they belong to. Residues, ends and D or L forms follow the SMILES beside them. *: point of attachment. pNA = O=[N+]([O-])c1ccc(N*)cc1; Bz = O=C(c1ccccc1)*

Legend:
blastocysts = assay: In vitro embryo hatching; format: cell-based
Description: In order to define a physiological role for the ISPs, the effect of inhibiting ISP activity upon embryo hatching, outgrowth (Fig. 6 and 7) and implantation (Table 1) was investigated. Blastocysts were first cultured in the presence or absence of anti-ISP mAbs or selected inhibitors. […] Similarly, the effect of varying concentrations of anti-ISP1 and anti-ISP2 mAbs was studied both individually and together (Fig. 7C, E and 7G).
(§1) Blastocysts were collected by flushing the uteri of day 3.5 post coetum dams with M2 (Sigma Aldrich and Co.) medium. For in vitro hatching experiments, blastocysts were cultured in micro drops of Knockout DMEM medium (Invitrogen) with serum replacement in a drop under mineral oil at 37°C and 5% CO2 [27]. For in vitro embryo outgrowth onto extracellular matrix, hatched blastocysts were cultured for an additional 48 h at 37°C and 5% CO2 in DMEM plus 5% (v/v) fetal bovine serum on […] Nunc tissue culture dishes coated with extracellular matrix derived from 10% Triton X-100 (v/v) treated mouse embryo fibroblasts. Inhibitors or anti-ISP mAbs were mixed into media at stated concentrations. For antibody inhibition experiments, anti-ISP hybridoma supernatants (or negative control supernatants) were mixed with embryo culture media at an appropriate concentration. For inhibitor experiments, negative controls contained the medium used to dispense Gabexate mesylate.

hatched blastocysts [1] = assay: In vitro embryo outgrowth onto extracellular matrix; format: cell-based; conditions: for Embryo death: 48 hrs
Description: Implantation was simulated in vitro by growth of the hatched blastocysts in culture plates coated with the extracellular matrix derived from mouse embryonic fibroblasts, which can be invaded by outgrowing embryos (Fig. 6C and 6D). The effect of Gabexate on blastocyst outgrowth is also incremental with increasing concentration of Gabexate (Fig. 7B). […] A similar result was not observed for individual or combined mAbs, possibly owing to the abundance of ISP enzyme that occurs within the uterine fluid.
as §1

ISP1-ISP2 enzyme complex [2] = target: T1, ISP1-ISP2 enzyme complex (Mus musculus, UniProt Q924N9+Q99MS4); assay: Inhibition of proteolytic activity of ISP enzyme complex, chromogenic assay with BAPNA as substrate; format: biochemical; conditions: for Ki: from IC50 by Cheng and Prusoff equation, read-out: Dissociation Constant (Ki); for Influence on ISP activity: general trypsin inhibitors; for Affinity for ISP enzyme: Fig. 4B, compared to Benzamidine
T1 construct: The native ISP enzyme complex was purified from mouse uterine tissue homogenates; from tissue; host or cells: uterus of pregnant CD1 mice (4.5-6.5 dpc)
T1 sequence (Q924N9 27-274): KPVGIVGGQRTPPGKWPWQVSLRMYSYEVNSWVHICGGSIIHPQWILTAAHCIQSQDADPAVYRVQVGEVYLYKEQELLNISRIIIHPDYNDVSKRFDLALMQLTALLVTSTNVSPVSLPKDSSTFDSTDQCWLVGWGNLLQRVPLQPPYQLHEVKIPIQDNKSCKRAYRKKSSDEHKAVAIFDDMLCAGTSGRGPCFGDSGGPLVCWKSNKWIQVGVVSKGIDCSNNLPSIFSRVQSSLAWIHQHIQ
T1 sequence (Q99MS4 18-279): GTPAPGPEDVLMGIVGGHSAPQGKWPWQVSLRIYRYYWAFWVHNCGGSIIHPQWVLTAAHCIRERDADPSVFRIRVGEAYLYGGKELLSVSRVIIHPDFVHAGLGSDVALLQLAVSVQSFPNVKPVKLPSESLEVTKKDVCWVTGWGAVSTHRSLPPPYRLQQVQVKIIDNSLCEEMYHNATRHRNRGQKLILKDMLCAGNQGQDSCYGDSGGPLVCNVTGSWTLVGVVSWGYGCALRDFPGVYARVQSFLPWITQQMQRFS
Method: Many general serine proteinase inhibitors were tested in order to identify suitable ISP inhibitors when BAPNA was used as a substrate. These included Benzamidine hydrochloride, 4-(Amidino-Phenyl)-Methane-Sulfonyl Fluoride (APMSF), L-1 Chloro-3- [4-tosyl-amido]-7-amino-2-heptanone. HCl (TLCK), Trypsin Soybean Inhibitor (TSI), Bis (5-amidino-2-benzimadozolyl) methane (BABIM), Gabexate mesylate, Nafamostat, and the kunitz family serpins Uterine Plasmin-Trypsin Inhibitor (UPTI) and Secretary Leukocyte proteinase inhibitor (SLPI).
Only inhibitors specific for trypsin-like serine proteinases were able to inhibit the ISPs (Fig. 4B and Additional file 2. Table 1). IC50 (concentration of an inhibitor capable of inhibiting the enzyme activity by 50%) values were obtained by plotting inhibition data, which were extrapolated into Cheng and Prusoff's equation to derive the dissociation constant (Ki).
(§2) Chromogenic assays were carried out using the p-Nitroanilide conjugated peptidic substrates. The reaction conditions used were: 4 mM BAPNA (substrate), in 25 mM Tris.Cl (pH 8.0) and 10 mM EDTA reaction buffer, in a total reaction volume of 0.5 mL. The reactions were carried out at room temperature in a glass cuvette (1 cm path length), and scanned at wavelength maxima of 405 nm using a spectrophotometer. 1 Unit of enzyme is defined as enzyme activity sufficient for the breakdown of 1 μM of substrate/ml/min. The affinity of ISP complex with various substrates was characterized by measuring enzyme activity at differing substrate concentrations and plotting enzyme activity [V] vs. substrate concentration [S]. The Km was calculated using the Michaelis Menton equation (Km = [S] at 1/2 Vmax).
IC50 values were derived by plotting enzyme activity (V) vs. inhibitor concentration [I]. Dissociation constants (Ki) values for different inhibitors were determined by using the Cheng and Prusoff equation (Ki = IC50/1 + [S]/Km).

ISP1-ISP2 enzyme complex [3] = target: T1, ISP1-ISP2 enzyme complex; assay: Substrate affinity (Km) of synthetic chromogenic substrates for ISP enzyme complex; format: biochemical; conditions: Km = [S] at 1/2 Vmax
Method: To determine the substrate specificity of the ISP complex and to classify it into a subclass of the S1 family of serine proteinases, enzyme assays were carried out using different p-nitroanilide linked peptide (1–3 mer) substrates. These included chymotrypsin-like (Tyr/Phe at cleavage (P1) site), trypsin-like (Arg/Lys at P1 position), elastase-like (Ala at P1 position), and subtilisin-like (Leu at P1 position) substrates. In order to compare affinity of specific substrates and derive Michaelis Menton constant (Km) values, the kinetic curves were plotted (substrate conc. [S] vs. rate of reaction [v]).
as §2

embryo implantation = assay: Effect on pregnancy after injection into the uterine lumen; format: in vivo, CD1 mice; conditions: for # pregnant / # embryos: 10 ul of 10 mM per uterine horn at 2.5 dpc, examined at 7.5 dpc; for Rate (%) of pregnancy: rate of pregnancy in Controls assumed as 100%
Method: CD1 mice were obtained at the age of 6–8 weeks from Charles River Canada (St. Constant, Quebec) and maintained in a standard laboratory animal facility with controlled temperature (20°C), humidity and light cycle (lights on between 0700 and 1900 hr). The maintenance and treatment of animals was in full compliance with the Standard laboratory animal care protocols approved by the University of Calgary Animal Care Committee. To obtain natural pregnancies, female mice were paired with adult males and checked daily for the presence of vaginal copulatory plugs, as an indication of mating. The day of plug detection is designated as day 0.5 post coetum. For collection of uteri and embryos, pregnant dams were sacrificed on a specific day by cervical dislocation.
Uterine horns were exposed surgically whereupon inhibitor or anti-ISP antibodies were injected into the uterine lumen using the minimum possible volume (10 μl fluid was injected per horn). Since Gabexate was dissolved in normal saline, the control mice were injected with normal saline solution.

hatched blastocysts [4] = assay: In vitro embryo outgrowth onto extracellular matrix; format: cell-based
[5] = 4 mM BAPNA substrate, 25 mM Tris.Cl pH 8.0, room temperature, read-out: IC50%
[6] = Expt 06, 0.01 mM, 5 embryos/drop, control 4
[7] = Expt 06, 0.05 mM, 5 embryos/drop, control 4
[8] = Expt 06, 0.1 mM, 5 embryos/drop, control 4
[9] = Expt 07, 0.1 mM, 5 embryos/drop, control 6 of 6
[10] = Expt 07, 0.5 mM, 6 embryos/drop, control 6
[11] = Expt 04, 0.1 mM, 6 embryos/drop, control 6
[12] = Expt 04, 0.25 mM, 6 embryos/drop, control 6

Molecule: N=C(N)c1ccccc1 [Benzamidine hydrochloride]
Embryo death (blastocysts; Expt 01, 50 mM, 12 embryos/drop, 24 hrs): all died
Embryos hatched after 24 hrs. (blastocysts; Expt 01, 50 mM, 12 embryos/drop, control 9): 0
Embryo death (blastocysts; Expt 02, 20 mM, 10 embryos/drop, 24 hrs): all died
Embryos hatched after 24 hrs. (blastocysts; Expt 02, 20 mM, 10 embryos/drop, control 5): 0
Embryos hatched after 24 hrs. (blastocysts; Expt 03, 0.5 mM, 11 embryos/drop, control 5): 3
Embryos hatched after 48 hrs. (blastocysts; Expt 03, 0.5 mM, 11 embryos/drop, control 10): 4
Embryos hatched after 24 hrs. (blastocysts; Expt 03, 1 mM, 11 embryos/drop, control 5): 4
Embryos hatched after 48 hrs. (blastocysts; Expt 03, 1 mM, 11 embryos/drop, control 10): 7
Embryos hatched after 24 hrs. (blastocysts; Expt 03, 4 mM, 11 embryos/drop, control 5): 2
Embryos hatched after 48 hrs. (blastocysts; Expt 03, 4 mM, 11 embryos/drop, control 10): 2
Embryo death (hatched blastocysts [1]; Experiment 01, 50 mM, 12 hatched embryos): all died
Embryos outgrown after 48 hrs. (hatched blastocysts [1]; Experiment 01, 50 mM, 12 hatched embryos, control 9): 0
Embryo death (hatched blastocysts [1]; Experiment 02, 4 mM, 10 hatched embryos): all died
Embryos outgrown after 48 hrs. (hatched blastocysts [1]; Experiment 02, 4 mM, 10 hatched embryos, control 10): 0
Ki (ISP1-ISP2 enzyme complex [2]; BAPNA substrate): 44300 µM
Influence on ISP activity (ISP1-ISP2 enzyme complex [2]): inhibitory influence

Molecule: Cc1ccc(S(=O)(=O)N[C@@H](CCCCN)C(=O)CCl)cc1.Cl [TLCK, L-1-chloro-3[4-tosyl-amido]-7-amino-2-heptanone-HCl]
IC50 (ISP1-ISP2 enzyme complex [2]; [5]): 8000 µM
Ki (ISP1-ISP2 enzyme complex [2]; BAPNA substrate): 2180 µM
Influence on ISP activity (ISP1-ISP2 enzyme complex [2]): inhibitory influence

Km (ISP1-ISP2 enzyme complex [3]): 60 µM
Molecule: CC(C)[C@H](NC(=O)[C@H](Cc1ccccc1)NC(=O)c1ccccc1)C(=O)N[C@@H](CCCN=C(N)N)C(=O)Nc1ccc([N+](=O)[O-])cc1 [BPVANA, N-Benzoyl-Phe-Val-Arg-pNA] (Bz-Phe-Val-Arg-pNA)

Molecule: CCOC(=O)c1ccc(OC(=O)CCCCCNC(=N)N)cc1 [Gabexate mesylate]
Embryo death (blastocysts; CD1, mouse, 24 h, 0.1 mM): all died
Embryo death (blastocysts; CD1, mouse, 24 h, 0.5 mM): all died
Embryo death (blastocysts; CD1, mouse, 24 h, 2 mM): all died
Embryos hatched after 24 hrs. (blastocysts; Expt 05, 0.1 mM, 6 embryos/drop, control 6): 0
Embryos hatched after 24 hrs. (blastocysts; Expt 05, 0.5 mM, 6 embryos/drop, control 6): 0
Embryos hatched after 24 hrs. (blastocysts; Expt 05, 2.0 mM, 6 embryos/drop, control 6): 0
Embryos hatched after 24 hrs. (blastocysts; [6]): 4
Embryos hatched after 48 hrs. (blastocysts; [6]): 4
Embryos hatched after 24 hrs. (blastocysts; [7]): 4
Embryos hatched after 48 hrs. (blastocysts; [7]): 4
Embryos hatched after 24 hrs. (blastocysts; [8]): 0
Embryos hatched after 48 hrs. (blastocysts; [8]): 2
Embryos hatched after 24 hrs. (blastocysts; [9]): 0
Embryos hatched after 48 hrs. (blastocysts; [9]): 2
Embryos hatched after 24 hrs. (blastocysts; [10]): 0
Embryos hatched after 48 hrs. (blastocysts; [10]): 0
Embryos hatched after 24 hrs. (blastocysts; Expt 08, 0.1 mM, 16 embryos/drop, control 4 of 17): 3
Embryos hatched after 48 hrs. (blastocysts; Expt 08, 0.1 mM, 16 embryos/drop, control 12 of 17): 3
Embryos hatched after 24 hrs. (blastocysts; Expt 08, 0.5 mM, 17 embryos/drop, control 4): 1
Embryos hatched after 48 hrs. (blastocysts; Expt 08, 0.5 mM, 17 embryos/drop, control 12): 3
Effect on in vitro embryo hatching (blastocysts; compared to controls): almost completely inhibited
Embryos outgrown after 48 hrs. (hatched blastocysts [1]; Experiment 03, 0.1 mM, 8 hatched embryos, control 5): 0
Embryos outgrown after 48 hrs. (hatched blastocysts [1]; Experiment 03, 0.5 mM, 8 hatched embryos, control 5): 1
Embryos outgrown after 48 hrs. (hatched blastocysts [1]; Experiment 04, 0.1 mM, 11 hatched embryos, control 6): 5
Embryos outgrown after 48 hrs. (hatched blastocysts [1]; Experiment 04, 0.5 mM, 11 hatched embryos, control 6): 1
Effect on in vitro embryo outgrowth (hatched blastocysts [1]; compared to controls): almost completely inhibited
IC50 (ISP1-ISP2 enzyme complex [2]; [5]): 1800 µM
Affinity for ISP enzyme (ISP1-ISP2 enzyme complex [2]): relatively high affinity
Ki (ISP1-ISP2 enzyme complex [2]; BAPNA substrate): 490 µM
Influence on ISP activity (ISP1-ISP2 enzyme complex [2]): inhibitory influence
# pregnant (embryo implantation; group 1, 11 mice, Control 1: 6 of 6): 1
# embryos (embryo implantation; group 1, 11 mice, Control 1: 72): 2
Rate (%) of pregnancy (embryo implantation; group 1): 2.8%
# pregnant (embryo implantation; group 2, 6 mice, Control 2: 4 of 4): 1
# embryos (embryo implantation; group 2, 6 mice, Control 2: 22): 3
Rate (%) of pregnancy (embryo implantation; group 2): 13.6%
Effect on embryo implantation in vivo (embryo implantation; injected into the uterine lumen at 2.5 dpc, compared with controls): rate of pregnancy drops to very low
Embryos outgrown after 72 hrs. (hatched blastocysts [4]; Experiment 03, 0.1 mM, 8 hatched embryos, control 7): 4
Embryos outgrown after 72 hrs. (hatched blastocysts [4]; Experiment 03, 0.5 mM, 8 hatched embryos, control 7): 2
Embryos outgrown after 72 hrs. (hatched blastocysts [4]; Experiment 04, 0.1 mM, 11 hatched embryos, control 9): 6
Embryos outgrown after 72 hrs. (hatched blastocysts [4]; Experiment 04, 0.5 mM, 11 hatched embryos, control 9): 2

Molecule: N=C(N)c1ccc2[nH]c(Cc3nc4cc(C(=N)N)ccc4[nH]3)nc2c1 [BABIM, Bis (5-amidino-2-benzimadozolyl) methane]
Embryos hatched after 24 hrs. (blastocysts; [11]): 5
Embryos hatched after 48 hrs. (blastocysts; [11]): 6
Embryos hatched after 24 hrs. (blastocysts; [12]): 1
Embryos hatched after 48 hrs. (blastocysts; [12]): 1
Embryo death (blastocysts; Expt 04, 0.5 mM, 6 embryos/drop, 24 hrs): all died
Embryos hatched after 24 hrs. (blastocysts; Expt 04, 0.5 mM, 6 embryos/drop, control 6): 0
IC50 (ISP1-ISP2 enzyme complex [2]; [5]): 750 µM
Affinity for ISP enzyme (ISP1-ISP2 enzyme complex [2]): relatively high affinity
Ki (ISP1-ISP2 enzyme complex [2]; BAPNA substrate): 204 µM
Influence on ISP activity (ISP1-ISP2 enzyme complex [2]): inhibitory influence

IC50 (ISP1-ISP2 enzyme complex [2]; BAPNA substrate, no effect up to stated concentration, read-out: IC50% (No effect up to)): > 500000 µM
Molecule: UPTI: rPorcine Uterine Plasmin Trypsin Inhibitor

Molecule: N=C(N)c1ccc(CS(=O)(=O)F)cc1 [APMSF, 4-(Amidino-Phenyl)-Methane-Sulfonyl Fluoride]
IC50 (ISP1-ISP2 enzyme complex [2]; [5]): 19500 µM
Ki (ISP1-ISP2 enzyme complex [2]; BAPNA substrate): 5310 µM
Influence on ISP activity (ISP1-ISP2 enzyme complex [2]): inhibitory influence
